For orientation: Papp means the rate of passage across a membrane or cell layer, normalised by area and donor concentration.

Five molecules from PMC8587071, “Utilization of Sodium Nitroprusside as an Intestinal Permeation Enhancer for Lipophilic Drug Absorption Improvement in the Rat Proximal Intestine” (Molecules, 2021) can be followed below.

For one series, the system named is rat duodenum. Description: in vitro sac permeation study, rat duodenum. As to conditions: for Papp Ratio (SNP/CTRL): SNP 3 mM pretreatment. On the procedure:
(§1) Animal experimental protocols (approval codes: P18-30, P19-09, and P20-14) were carried out in accordance with the Ethical Committee of Tokyo University of Pharmacy and Life Sciences. Male Wistar rats (8 weeks old) were obtained from Tokyo Laboratory Animals Science Co., Ltd. (Tokyo, Japan). Permeation studies of lipophilic drugs were carried out using the in vitro sac method, as previously described.
(§2) Based on these concentrations, the apparent permeability coefficients (Papp) of each test compound were calculated according to the following Equation (1):(1) Pappcm/s=dQ/dt×1/C0S where: • dQ/dt—the flux of the test compound in the serosal side, • C0—the initial concentration in the mucosal side, • S—the surface area of the intestinal lumen.

Series [1] can be described thus: in vitro sac permeation study, rat ileum. As to conditions: male, Wistar, rat, 200 μM test compound. On the procedure: (§3) Animal experimental protocols (approval codes: P18-30, P19-09, and P20-14) were carried out in accordance with the Ethical Committee of Tokyo University of Pharmacy and Life Sciences. Male Wistar rats (8 weeks old) were obtained from Tokyo Laboratory Animals Science Co., Ltd. (Tokyo, Japan). Permeation studies of lipophilic drugs were carried out using the in vitro sac method, as previously described. […] The serosal samples were collected at 0, 10, 20, 30, 40, 60, 90, and 120 min after administration, and analyzed using a reversed-phase HPLC system (LC-2000Plus; JASCO Co., Tokyo, Japan) or fluorescence microplate reader to determine the concentration of each test compound [15].
as §2

The next series deals with rat ileum. Put plainly: in vitro sac permeation study, rat ileum. As to conditions: SNP 3 mM pretreatment. On the procedure:
as §3, §2

Series [2] in a line: in vitro sac permeation study, rat duodenum. As to conditions: male, Wistar, rat, 200 μM test compound. On the procedure: as §1, §2
Series [3] is described as follows: in vitro sac permeation study, rat jejunum. As to conditions: male, Wistar, rat, 200 μM test compound. On the procedure:
as §3, §2

The test system of another series is rat jejunum. Put plainly: in vitro sac permeation study, rat jejunum. As to conditions: SNP 3 mM pretreatment. On the procedure:
as §3, §2

Series [4] in a line: in vitro sac permeation study, rat colon. Particulars: male, Wistar, rat, 200 μM test compound. On the procedure:
as §3, §2

The next series deals with rat colon. Description: in vitro sac permeation study, rat colon. As to conditions: SNP 3 mM pretreatment. On the procedure: as §3, §2
Where [5] appears, read: Papp SNP, pretreated with SNP 3 mM for 60 min.

For `O[C@@H](CS)[C@@H](O)CS` (racemic) [DTT, dithiothreitol], the “effect on the SNP enhancement of griseofulvin permeability” value with rat duodenum (DTT 10 mM for 10 min before SNP 3 mM) is “visibly disappeared”. In the series with rat duodenum (SNP 3 mM 60 min, DTT 10 mM 10 min), the “effect of pretreatment on flurbiprofen permeation” value is reported as “increased”. For the same molecule, in the series with rat duodenum (SNP or SFC 3 mM 60 min, DTT 10 mM 10 min), the “effect of pretreatment on griseofulvin permeation” value is “increased”.

Consider `CC(C(=O)O)c1ccc(-c2ccccc2)c(F)c1` (centres unmarked) [Flurbiprofen], for which the apparent permeability (Papp) at 120 min, 200 μM in series [1] (Papp CTRL, SNP-untreated) came out at 33.9 ± 11.3 ×10⁻⁶ cm/s; in series [1] (setting [5]) it was 39.8 ± 17.7 ×10⁻⁶ cm/s; in series [2] (Papp CTRL, SNP-untreated) it was 5.8 ± 1.7 ×10⁻⁶ cm/s; in series [2] (setting [5]) it was 13 ± 2.7 ×10⁻⁶ cm/s; in series [3] (Papp CTRL, SNP-untreated), 26 ± 11.9 ×10⁻⁶ cm/s; in series [3] (setting [5]) it was 32.7 ± 12.9 ×10⁻⁶ cm/s. The Papp at 120 min, 200 μM in series [4] (Papp CTRL, SNP-untreated) was determined as 28.3 ± 2.5 ×10⁻⁶ cm/s; in series [4] (setting [5]), 19.4 ± 3.7 ×10⁻⁶ cm/s. The “Papp Ratio (SNP/CTRL)” value in the series with rat ileum was determined as 1.17; in the series on rat duodenum, 2.24; in the series with rat jejunum, 1.26; in the series with rat colon, 0.69.

On to `COC1=CC(=O)C[C@@H](C)[C@]12Oc1c(Cl)c(OC)cc(OC)c1C2=O` [Griseofulvin], for which the Papp at 120 min, 200 μM amounted to 24.3 ± 6 ×10⁻⁶ cm/s in series [1] (Papp CTRL, SNP-untreated); 18.4 ± 4.4 ×10⁻⁶ cm/s in series [1] (setting [5]); 8 ± 4.2 ×10⁻⁶ cm/s in series [2] (Papp CTRL, SNP-untreated); 19.6 ± 4.1 ×10⁻⁶ cm/s in series [2] (setting [5]); 42.2 ± 20 ×10⁻⁶ cm/s in series [3] (Papp CTRL, SNP-untreated); 70.3 ± 19.2 ×10⁻⁶ cm/s in series [3] (setting [5]). The Papp at 120 min, 200 μM in series [4] (Papp CTRL, SNP-untreated) was 39.6 ± 21.4 ×10⁻⁶ cm/s; in series [4] (setting [5]), 31.7 ± 11.1 ×10⁻⁶ cm/s. In addition, the “Papp Ratio (SNP/CTRL)” value in the series on rat ileum came to 0.76; in the series on rat duodenum it was 2.45; in the series with rat jejunum, 1.67; in the series with rat colon, 0.80.

For the molecule `CC(C)NCC(O)COc1cccc2ccccc12` (centres unmarked) [Propranolol], the Papp at 120 min, 200 μM in series [1] (Papp CTRL, SNP-untreated) stood at 3.7 ± 1 ×10⁻⁶ cm/s; in series [1] (setting [5]), 3.9 ± 1 ×10⁻⁶ cm/s; in series [2] (Papp CTRL, SNP-untreated), 1.1 ± 0.6 ×10⁻⁶ cm/s; in series [2] (setting [5]), 1.3 ± 0.7 ×10⁻⁶ cm/s; in series [3] (Papp CTRL, SNP-untreated), 4.7 ± 1 ×10⁻⁶ cm/s; in series [3] (setting [5]), 4.3 ± 1.8 ×10⁻⁶ cm/s. Also, the Papp at 120 min, 200 μM in series [4] (Papp CTRL, SNP-untreated) worked out at 2.1 ± 1.1 ×10⁻⁶ cm/s; in series [4] (setting [5]), 3.5 ± 1.6 ×10⁻⁶ cm/s. Moreover, the “Papp Ratio (SNP/CTRL)” value is reported as 1.05 in the series with rat ileum, 1.18 in the series with rat duodenum, 0.91 with rat jejunum and 1.67 with rat colon.

On to `CC1(C)N([O])C(c2ccc(C(=O)O)cc2)=[N+]([O-])C1(C)C` [c-PTIO, Carboxy-PTIO], for which the “effect on the SNP enhancement of griseofulvin permeability” value in the series with rat duodenum (c-PTIO 1 mM co-pre-treated with SNP 3 mM) was “inhibited”. For the same molecule, the “effect on the SNP-increased FD-4 permeation” value in the series with rat duodenum (c-PTIO 1 mM with SNP 3 mM) is on record as “disappeared”.
